Measured values reported in patent US9637592B2, “Vitamin functionalized gel-forming block copolymers for biomedical applications” (International Business Machines Corporation, priority 2013, dated 2017).

How the values were obtained:
C. albicans = format: cell-based, Candida albicans; details: solution, 5.0 mg/L (5 ppm)
Method: A stock solution of cationic polymer VE/PrBr(1:15) (5 mg) in sterile HPLC grade water (10 ml) was prepared having a final concentration of 500 mg/L (500 ppm). A second stock solution of fluconazole (1 mg) in sterile HPLC grade water (100 ml) was prepared having a final concentration of 10 mg/L (10 ppm). […] Formulation (2) was obtained by combining 125 microliters each of the stock solutions of cationic polymer and fluconazole and diluting the resulting solution with 750 microliters of sterile HPLC grade water.

P. aeruginosa = experiment: killing efficiency / MBC; format: cell-based, Pseudomonas aeruginosa; details: drug alone
Method: Procedure for hydrogels: E. coli, P. aeruginosa, S. aureus and C. albicans were obtained from ATCC and reconstituted from its lyophilized form according to the manufacturer's protocol. Bacterial samples were cultured in Tryptic Soy Broth (TSB) solution at 37° C. under constant shaking of 300 rpm. C. albicans was culture in yeast medium at room temperature under constant shaking of 70 rpm. Prior to treatment, the bacterial sample was first inoculated and cultured to enter into log growth phase. To prepare the antimicrobial hydrogels, cationic polymer was first dissolved in filtered HPLC water in a bio-hood. The resultant solution was then added to solid triblock copolymer for dissolution and left to stand 4 hours at room temperature for the formation of the hydrogels (Example 28 and Example 29). […]
[…] The concentration of bacterial solution was adjusted to give an initial optical density (O.D.) reading of approximately 0.07 at 600 nm wavelength on a microplate reader (TECAN, Switzerland), which corresponds to the concentration of McFarland 1 solution (3×10^8 CFU/mL) The bacterial solution was then diluted and an equal volume of bacterial suspension (3×10^5) was added into each well. […] The plates were incubated for 24 hours at 37° C. and the number of colony-forming units (CFU) was counted. […]

Substance	killing efficiency against C. albicans (C. albicans) [%]	MBC against P. aeruginosa (P. aeruginosa) [mg/L]
Fluconazole	93.53	
Doxycycline [DXY]		20 to 30
